The target in this assay is USP19 (Homo sapiens (Human), UniProt O94966). Description: USP19 activity assay (fluorescence polarisation, Ubiquitin-Lys-TAMRA substrate). The class given is biochemical. The note with it: full-length USP19 2.5 nM, 30 min pre-incubation, Ub substrate 500 nM; average of at least two duplicate experiments. The procedure: Unless otherwise stated, all other reagents were purchased from Sigma. Enzymatic reactions were conducted in black flat bottom polystyrene 384-well plates (Nunc) and 30 μL total volume. […] Inhibitors were stored as 10 mM DMSO stocks in an inert environment (low humidity, dark, low oxygen, room temperature) using the Storage Pod System and serial dilutions were prepared in buffer just prior to the assay (from 200 μM to 2 pM, 8-18 data point curve). Following incubation at RT for 30 min, the enzymatic reactions were initiated by dispensing the Ub substrate (500 nM, 10 μL). FP was measured every 15 min over a period of 90 min (within the linear range of the assay) using a Synergy 4 plate reader (BioTek) exciting at 530 nm and measuring the amount of parallel and perpendicular light at 575 nm. The FP signal was subsequently normalised to the no compound control.
USP19, sequence (O94966 whole entry): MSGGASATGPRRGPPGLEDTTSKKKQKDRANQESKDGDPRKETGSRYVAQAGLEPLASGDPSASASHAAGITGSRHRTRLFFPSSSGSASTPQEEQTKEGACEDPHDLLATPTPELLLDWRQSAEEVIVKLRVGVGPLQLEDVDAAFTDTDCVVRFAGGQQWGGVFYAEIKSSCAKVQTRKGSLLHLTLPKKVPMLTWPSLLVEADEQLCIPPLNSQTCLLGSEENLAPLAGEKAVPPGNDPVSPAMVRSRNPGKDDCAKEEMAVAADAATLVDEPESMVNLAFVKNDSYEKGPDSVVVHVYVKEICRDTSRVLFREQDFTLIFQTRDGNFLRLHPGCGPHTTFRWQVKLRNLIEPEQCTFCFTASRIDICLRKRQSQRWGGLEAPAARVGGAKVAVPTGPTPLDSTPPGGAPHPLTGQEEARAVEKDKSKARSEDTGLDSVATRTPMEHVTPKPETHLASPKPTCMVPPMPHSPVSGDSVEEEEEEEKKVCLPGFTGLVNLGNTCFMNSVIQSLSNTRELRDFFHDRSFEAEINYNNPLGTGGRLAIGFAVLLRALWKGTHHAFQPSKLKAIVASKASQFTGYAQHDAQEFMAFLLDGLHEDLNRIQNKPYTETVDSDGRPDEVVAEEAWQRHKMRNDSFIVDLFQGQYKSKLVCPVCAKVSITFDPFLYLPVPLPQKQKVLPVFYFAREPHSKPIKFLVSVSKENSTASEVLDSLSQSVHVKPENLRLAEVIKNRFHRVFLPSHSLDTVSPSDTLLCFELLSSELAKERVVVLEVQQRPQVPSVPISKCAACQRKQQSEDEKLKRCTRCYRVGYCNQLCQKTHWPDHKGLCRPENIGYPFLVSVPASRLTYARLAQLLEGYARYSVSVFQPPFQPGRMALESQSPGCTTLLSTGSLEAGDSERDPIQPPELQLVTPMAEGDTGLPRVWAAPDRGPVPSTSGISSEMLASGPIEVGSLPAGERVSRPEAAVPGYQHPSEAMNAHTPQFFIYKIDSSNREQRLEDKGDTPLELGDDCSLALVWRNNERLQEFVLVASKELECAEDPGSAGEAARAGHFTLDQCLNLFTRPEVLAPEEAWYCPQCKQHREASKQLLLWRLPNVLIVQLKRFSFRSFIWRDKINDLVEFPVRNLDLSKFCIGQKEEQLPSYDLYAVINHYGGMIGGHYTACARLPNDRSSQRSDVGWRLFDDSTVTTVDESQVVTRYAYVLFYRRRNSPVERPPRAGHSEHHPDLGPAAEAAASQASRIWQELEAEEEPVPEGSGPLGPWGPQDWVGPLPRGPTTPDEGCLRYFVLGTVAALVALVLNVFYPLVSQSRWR
As to `C[C@H](CC1CCCCC1)C(=O)N1CCC(O)(Cn2cc(C(=O)N3CCCCC3)c(-c3ccccc3)cc2=O)CC1` [Example 36, (R)-1-((1-(3-Cyclohexyl-2-methylpropanoyl)-4-hydroxypiperidin-4-yl)methyl)-4-phenyl-5-(piperidine-1-carbonyl)pyridin-2(1H)-one], the half-inhibitory concentration (IC50) lay in the range of 0.5 to 5 µM.
For `C[C@H](CC(=O)N1CCC(O)(Cn2ncc(-c3ccccc3)cc2=O)CC1)c1ccccc1` [Example 37, (R)-2-((4-Hydroxy-1-(3-phenylbutanoyl)piperidin-4-yl)methyl)-5-phenylpyridazin-3(2H)-one], the concentration for half-maximal inhibition (IC50) lay in the range of 50 to 250 µM.
Turning to `CC(C)N(C)C(=O)c1cn(CC2(O)CCN(C(=O)C[C@@H](C)c3ccccc3)CC2)c(=O)cc1-c1ccccc1C#N` [Example 38, (R)-4-(2-Cyanophenyl)-1-((4-hydroxy-1-(3-phenylbutanoyl)piperidin-4-yl)methyl)-N-isopropyl-N-methyl-6-oxo-1,6-dihydropyridine-3-carboxamide], the 50% inhibitory concentration (IC50) fell in the range of 50 to 250 µM.
Take `C[C@H](CC1CCCCC1)C(=O)N1CCC(O)(Cn2cnc(-c3ccccc3F)cc2=O)CC1` [Example 39, (R)-3-((1-(3-Cyclohexyl-2-methylpropanoyl)-4-hydroxypiperidin-4-yl)methyl)-6-(2-fluorophenyl)pyrimidin-4(3H)-one]: the IC50 was 5 to 50 µM.
Turning to `CCC(CC1CCCCC1)C(=O)N1CCC(O)(Cn2cnc(-c3ccccc3F)cc2=O)CC1` (centres unmarked) [Example 40, 3-((1-(2-(Cyclohexylmethyl)butanoyl)-4-hydroxypiperidin-4-yl)methyl)-6-(2-fluorophenyl)pyrimidin-4(3H)-one], the IC50 lay within 5 to 50 µM.
As to `CC1(C(=O)N2CCC(O)(Cn3cnc(-c4ccccc4F)cc3=O)CC2)CCCCC1` [Example 42, 6-(2-Fluorophenyl)-3-((4-hydroxy-1-(1-methylcyclohexanecarbonyl)piperidin-4-yl)methyl)pyrimidin-4(3H)-one], the IC50 was in the range of 5 to 50 µM.
In the case of `C[C@H](CC(=O)N1CCC(O)(Cn2cc(C=O)c(-c3ccccc3)cc2=O)CC1)c1ccccc1` [Example 45, (R)-1-((4-Hydroxy-1-(3-phenylbutanoyl)piperidin-4-yl)methyl)-6-oxo-4-phenyl-1,6-dihydropyridine-3-carbaldehyde], the IC50 was in the range of 50 to 250 µM.
Then `C[C@H](CC(=O)N1CCC(O)(Cn2cc(CN(C)C)c(-c3ccccc3)cc2=O)CC1)c1ccccc1` [Example 46, (R)-5-((Dimethylamino)methyl)-1-((4-hydroxy-1-(3-phenylbutanoyl)piperidin-4-yl)methyl)-4-phenylpyridin-2(1H)-one], with 50 to 250 µM.
Regarding `O=C(C[C@H](c1ccccc1)C(F)(F)F)N1CCC(O)(Cn2cnc(-c3ccccc3F)cc2=O)CC1` [Example 48, (R)-6-(2-Fluorophenyl)-3-((4-hydroxy-1-(4,4,4-trifluoro-3-phenylbutanoyl)piperidin-4-yl)methyl)pyrimidin-4(3H)-one], the concentration for half-maximal inhibition (IC50) lay within 50 to 250 µM.
As for `C[C@H](CC1CCCCC1)C(=O)N1CCC(O)(Cn2cc(-c3cccc(CN)c3)c(-c3ccccc3F)cc2=O)CC1` [Example 52, (R)-5-(3-(Aminomethyl)phenyl)-1-((1-(3-cyclohexyl-2-methylpropanoyl)-4-hydroxypiperidin-4-yl)methyl)-4-(2-fluorophenyl)pyridin-2(1H)-one], the IC50 fell in the range of 0.5 to 5 µM.
With `C[C@H](CC(=O)N1CCC(O)(Cn2cnc(Oc3ccc(F)cc3)cc2=O)CC1)c1ccccc1` [Example 54], the IC50 fell in the range of 50 to 250 µM.
For the molecule `C[C@H](CC(=O)N1CCC(O)(Cn2cc(N3CCCC3=O)c(-c3ccccc3)cc2=O)CC1)c1ccccc1` [Example 55, (R)-1-((4-Hydroxy-1-(3-phenylbutanoyl)piperidin-4-yl)methyl)-5-(2-oxopyrrolidin-1-yl)-4-phenylpyridin-2(1H)-one], the concentration for half-maximal inhibition (IC50) was in the range of 5 to 50 µM.
With `C=C1CCC(C)(C(=O)N2CCC(O)(Cn3cnc(-c4ccccc4F)cc3=O)CC2)CC1` [Example 56, 6-(2-Fluorophenyl)-3-((4-hydroxy-1-(1-methyl-4-methylenecyclohexanecarbonyl)piperidin-4-yl)methyl)pyrimidin-4(3H)-one], the half-maximal inhibitory concentration (IC50) was in the range of 5 to 50 µM.
As for `CC(C)(CC1CCC1)C(=O)N1CCC(O)(Cn2cnc(-c3ccccc3F)cc2=O)CC1` [Example 59, 3-((1-(3-Cyclobutyl-2,2-dimethylpropanoyl)-4-hydroxypiperidin-4-yl)methyl)-6-(2-fluorophenyl)pyrimidin-4(3H)-one], the half-inhibitory concentration (IC50) was 5 to 50 µM.
`C[C@H](CC(=O)N1C[C@H]2CC[C@@H](C1)C2(O)Cn1cnc(-c2ccccc2F)cc1=O)c1ccccc1` (some centres unmarked) [Example 60]: the IC50 lay in the range of 5 to 50 µM.
Consider `C[C@H](CC(=O)N1CCC(O)(Cn2cc(C(=O)N3CCC(O)CC3)c(-c3ccccc3)cc2=O)CC1)c1ccccc1` [Example 62, (R)-1-((4-Hydroxy-1-(3-phenylbutanoyl)piperidin-4-yl)methyl)-5-(4-hydroxypiperidine-1-carbonyl)-4-phenylpyridin-2(1H)-one], for which the IC50 lay within 0.5 to 5 µM.
On to `C[C@H](CC(=O)N1CCC(O)(Cn2cc(C(=O)N3CCCC3)c(-c3ccccc3)cc2=O)CC1)c1ccccc1` [Example 63, (R)-1-((4-Hydroxy-1-(3-phenylbutanoyl)piperidin-4-yl)methyl)-4-phenyl-5-(pyrrolidine-1-carbonyl)pyridin-2(1H)-one], for which the IC50 was in the range of 0.5 to 5 µM.
For `C[C@H](CC(=O)N1CCC(O)(Cn2cc(C(=O)N3CCC4(CC3)OCCO4)c(-c3ccccc3)cc2=O)CC1)c1ccccc1` [Example 64, (R)-1-((4-Hydroxy-1-(3-phenylbutanoyl)piperidin-4-yl)methyl)-4-phenyl-5-(1,4-dioxa-8-azaspiro[4.5]decane-8-carbonyl)pyridin-2(1H)-one] the value was 5 to 50 µM; for `C[C@H](CC(=O)N1CCC(O)(Cn2cc(C(=O)NC3CCCCC3)c(-c3ccccc3)cc2=O)CC1)c1ccccc1` [Example 65, (R)—N-Cyclohexyl-1-((4-hydroxy-1-(3-phenylbutanoyl)piperidin-4-yl)methyl)-6-oxo-4-phenyl-1,6-dihydropyridine-3-carboxamide], 5 to 50 µM.
For `CC(C)N(C)C(=O)c1cn(CC2(O)CCN(C(=O)C[C@@H](c3ccccc3)C(F)F)CC2)c(=O)cc1-c1ccccc1` [Example 71, (S)-1-((1-(4,4-Difluoro-3-phenylbutanoyl)-4-hydroxypiperidin-4-yl)methyl)-N-isopropyl-N-methyl-6-oxo-4-phenyl-1,6-dihydropyridine-3-carboxamide] the value was 5 to 50 µM.
Turning to `CC(C)N(C)C(=O)c1cn(CC2(O)CCN(C(=O)C3(c4cccs4)CC3)CC2)c(=O)cc1-c1ccccc1` [Example 72, 1-((4-Hydroxy-1-(1-(thiophen-2-yl)cyclopropane-1-carbonyl)piperidin-4-yl)methyl)-N-isopropyl-N-methyl-6-oxo-4-phenyl-1,6-dihydropyridine-3-carboxamide], the IC50 is 50 to 250 µM.
On to `C[C@H](CC(=O)N1CCC(O)(Cn2cnc(-c3ccccc3CO)cc2=O)CC1)c1ccccc1` [Example 74, (R)-3-((4-Hydroxy-1-(3-phenylbutanoyl)piperidin-4-yl)methyl)-6-(2-(hydroxymethyl)phenyl)pyrimidin-4(3H)-one], for which the concentration for half-maximal inhibition (IC50) is 50 to 250 µM.
For `CCN(CC)C(=O)c1cn(CC2(O)CCN(C(=O)C[C@@H](C)c3ccccc3)CC2)c(=O)cc1-c1ccccc1` [Example 75, (R)—N,N-Diethyl-1-((4-hydroxy-1-(3-phenylbutanoyl)piperidin-4-yl)methyl)-6-oxo-4-phenyl-1,6-dihydropyridine-3-carboxamide], the 50% inhibitory concentration (IC50) was 0.5 to 5 µM.
`CC(CC(=O)N1CCC(O)(Cn2cnc(-c3ccccc3F)cc2=O)C(C)(C)C1)C1CCCCC1` (centres unmarked) [Example 76, 3-((1-(3-Cyclohexylbutanoyl)-4-hydroxy-3,3-dimethylpiperidin-4-yl)methyl)-6-(2-fluorophenyl)pyrimidin-4(3H)-one]: the half-inhibitory concentration (IC50) lay within 0.5 to 5 µM.
Take `C[C@H](CC(=O)N1CCC(O)(Cn2cc(C(=O)N3CCOCC3)c(-c3ccccc3)cc2=O)CC1)c1ccccc1` [Example 77, (R)-1-((4-Hydroxy-1-(3-phenylbutanoyl)piperidin-4-yl)methyl)-5-(morpholine-4-carbonyl)-4-phenylpyridin-2(1H)-one]: the half-maximal inhibitory concentration (IC50) lay in the range of 0.5 to 5 µM.
For `O=C(CCc1ccc(F)cc1)N1CCC(O)(Cn2cnc(-c3ccccc3F)cc2=O)CC1` [Example 82, 6-(2-Fluorophenyl)-3-((1-(3-(4-fluorophenyl)propanoyl)-4-hydroxypiperidin-4-yl)methyl)pyrimidin-4(3H)-one], the half-inhibitory concentration (IC50) fell in the range of 50 to 250 µM.
Turning to `CCC(C)(C)C(=O)N1CCC(O)(Cn2cc(C(=O)N(C)C(C)C)c(-c3ccccc3)cc2=O)CC1` [Example 84, 1-((1-(2,2-Dimethylbutanoyl)-4-hydroxypiperidin-4-yl)methyl)-N-isopropyl-N-methyl-6-oxo-4-phenyl-1,6-dihydropyridine-3-carboxamide], the 50% inhibitory concentration (IC50) is 50 to 250 µM.
Consider `CC(=O)Nc1ccccc1-c1cc(=O)n(CC2(O)CCN(C(=O)C[C@@H](C)c3ccccc3)CC2)cn1` [Example 85, (R)—N-(2-(1-((4-Hydroxy-1-(3-phenylbutanoyl)piperidin-4-yl)methyl)-6-oxo-1,6-dihydropyrimidin-4-yl)phenyl)acetamide], for which the IC50 was in the range of 50 to 250 µM.
For `C[C@H](CC(=O)N1CCC(O)(Cn2cc(-c3ccc(CN)cc3)c(-c3ccccc3)cc2=O)CC1)c1ccccc1` [Example 86, (R)-5-(4-(Aminomethyl)phenyl)-1-((4-hydroxy-1-(3-phenylbutanoyl)piperidin-4-yl)methyl)-4-phenylpyridin-2(1H)-one], the IC50 was 5 to 50 µM.

The values above are taken from patent publication US11053213B2, “Pharmaceutical compounds” (ALMAC DISCOVERY LIMITED, priority 2016, dated 2021).
